Consider seven molecules from patent US12076307B2, “Compositions for prevention or treatment of acute radiation syndrome and other radiation exposure” (priority 2017, dated 2024).

What is called IC50 is the concentration at which inhibition is half-maximal. The low end stands for greater potency, the high end for weaker potency.

Some results are limits rather than exact numbers.

Data set [1] has as its target T1, CYP1A2 (Homo sapiens, UniProt P05177).
T1 construct: incubated with human liver microsomes; from tissue; host or cells: human liver microsomes
Nature of the data set: biochemical. Type of data set: in vitro ADME.

The nature of data set [2]: In vitro metabolic stability / metabolite screening, statements over all species. The format is in vitro ADME, rat, dog, monkey, human. The settings on record: 100 μM. Here is the method: [^14C]EC-18 or the positive control (7-ethoxycoumarin; 7-EC) reacted with microsomes prepared from hepatocytes of rats, dogs, monkeys, and humans, with or without cofactors, for 60 and 120 min. Then, the residual EC-18 concentration over time was measured by LC-RID ([^14C]EC-18) or LC-MS/MS (7-EC) (FIG. 63 and FIG. 64).
The LC-RID chromatographic profiles of radioactive metabolites produced in the 2-hr incubation reaction mixtures of the same test systems A, B, and C used to assess the metabolic and non-metabolic elimination rates of EC-18 were compared to the LC-UV chromatographic profiles of the synthetic reference material. […] The relative radioactivity of EC-18 accounted for 42-67% of total radioactivity. The peaks designated as M2, M3, and M5 were also determined in all species, and their relative radioactivity accounted for 12-34% of total radioactivity. The peaks of M4 and M6 were determined in monkeys and humans. M1 was abundantly detected in all species, but it was assumed to be a peak of early elution. The LC-UV chromatograms of reaction mixtures in each test system (FIGS. 65A-65C) and the relative radioactivity of the screened metabolites are shown in Table 25.

The nature of data set [3]: In vitro plasma stability, human plasma. The format is in vitro ADME. The note with it: Humans; 1 μM; 37° C.; n=3. Here is the method:
(§1) To assess the stability of EC-18 in plasma, the test material, or the standard reference material (test concentration 1 μM) was mixed with rat and human plasma and allowed to react for 1 hr at 37° C. Then, the residual EC-18 concentration was measured by LC-MS/MS. As standard reference materials, albendazole (a drug with high plasma stability) and vinpocetine (a drug with low plasma stability) were tested in parallel. When allowed to react with rat and human plasma for 1 hr, the residual EC-18 concentration in both rat and human plasma was >99% of the initial dose.

Data set [4] in a line: In vitro plasma stability, rat plasma. Type of data set: in vitro ADME. The note with it: Rats; 1 μM; 37° C.; n=3. On the procedure: as §1
Another data set has as its system CXCL8. Description: CXCL8 release in HaCaT cells treated with CM or rhHMGB1. The note with it: rhHMGB1-treated cells. The format is cell-based, human. On the procedure: An additional experiment was tested for assessing whether EC-18 treatment leads to early termination of the RIPK1/3-MLKL-mediated downstream necroptosis pathway. This was performed by using DAMP-containing conditioned media (CM) harvested from HaCaT cells, irradiated for 48 hrs, and analyzed after 2 or 72 hrs of EC-18 treatment. […] To further confirm that DAMPs in CM contribute to the activation of a necroptosis signaling pathway in a paracrine manner, recombinant human HMGB1 (rhHMGB1) was treated directly to the normal HaCaT cells. The rhHMGB1 elevated the phosphorylation of RIPK1/3 and MLKL after 2 hrs and subsequently released HMGB1 and HSP90 (FIGS. 35C-35D). To evaluate whether EC-18 mitigates the activation of RIPK1/3 and MLKL, 10 or 100 μg/mL of EC-18 was treated before the addition of CM or rhHMGB1. As a result, EC-18 lowered the phosphorylation of RIPK/3 and MLKL in both CM- and rhHMGB1-treated cells after 2 hrs. Release of HMGB1 and Hsp90 was also subsided by EC-18 after 72 hrs of post addition of CM or rhHMGB1 to the cells (FIGS. 35A-35D). TLR4-induced necroptosis signaling pathway caused by DAMP release produces cytokines, such as CXCL8, a chemotactic cytokine for neutrophils. As CXCL8 increases upon tissue damage, it was measured in cells treated with CM or rhHMGB1 as a measure of inflammation. CXCL8 of CM from cells treated with chemo and radiotherapy was used for this evaluation. […] Moreover, rhHMGB1 increased the production of CXCL8, modulated by EC-18.

Data set [5] concerns CYP1A2. The format is in vitro ADME, human. The settings on record: Positive Control, 50 μM; n=3.
The next data set has as its target CYP2C19 (Homo sapiens, UniProt P33261). Nature of the data set: CYP enzyme inhibition in human liver microsomes, CYP2C19. The text has this:
(§2) CYP1A2, CYP2C9, CYP2C19, CYP2D6, and CYP3A4 are the CYP subfamily, which plays a critical role in the metabolism of most drugs.

The next data set has as its target CYP2D6 (Homo sapiens, UniProt P10635). Description: CYP enzyme inhibition in human liver microsomes, CYP2D6.
Text: as §2
On the technique in general: Liver microsomes are vesicles of endoplasmic reticulum, rich in cytochrome P450 enzymes.

Sequence of CYP2C19 (P33261 whole entry): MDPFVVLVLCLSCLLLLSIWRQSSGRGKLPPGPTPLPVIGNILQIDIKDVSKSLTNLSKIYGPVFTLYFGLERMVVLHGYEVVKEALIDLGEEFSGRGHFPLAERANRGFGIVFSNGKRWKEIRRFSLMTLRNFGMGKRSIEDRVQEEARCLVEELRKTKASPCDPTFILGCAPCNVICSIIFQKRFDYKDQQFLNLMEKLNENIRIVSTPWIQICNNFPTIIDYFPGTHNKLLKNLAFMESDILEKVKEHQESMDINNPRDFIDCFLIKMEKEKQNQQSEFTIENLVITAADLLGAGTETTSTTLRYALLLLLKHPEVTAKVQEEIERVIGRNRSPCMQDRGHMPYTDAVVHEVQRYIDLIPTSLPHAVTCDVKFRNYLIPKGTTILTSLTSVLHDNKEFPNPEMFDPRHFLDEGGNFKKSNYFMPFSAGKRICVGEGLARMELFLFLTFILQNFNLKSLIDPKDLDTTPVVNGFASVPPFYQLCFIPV
T1 sequence (P05177 whole entry): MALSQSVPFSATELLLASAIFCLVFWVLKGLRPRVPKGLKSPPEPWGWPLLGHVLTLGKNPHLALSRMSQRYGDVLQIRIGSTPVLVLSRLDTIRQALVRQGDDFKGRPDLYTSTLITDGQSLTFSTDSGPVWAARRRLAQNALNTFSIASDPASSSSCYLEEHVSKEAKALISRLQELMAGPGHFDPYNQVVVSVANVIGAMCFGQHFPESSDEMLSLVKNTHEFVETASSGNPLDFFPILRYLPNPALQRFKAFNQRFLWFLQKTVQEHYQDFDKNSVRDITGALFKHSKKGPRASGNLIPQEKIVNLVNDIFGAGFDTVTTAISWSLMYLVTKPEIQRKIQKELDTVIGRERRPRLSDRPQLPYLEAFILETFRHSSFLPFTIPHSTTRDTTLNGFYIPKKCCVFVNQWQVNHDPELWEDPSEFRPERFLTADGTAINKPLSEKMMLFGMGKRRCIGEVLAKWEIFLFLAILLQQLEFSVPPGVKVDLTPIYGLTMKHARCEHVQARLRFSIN
Sequence of CYP2D6 (P10635 whole entry): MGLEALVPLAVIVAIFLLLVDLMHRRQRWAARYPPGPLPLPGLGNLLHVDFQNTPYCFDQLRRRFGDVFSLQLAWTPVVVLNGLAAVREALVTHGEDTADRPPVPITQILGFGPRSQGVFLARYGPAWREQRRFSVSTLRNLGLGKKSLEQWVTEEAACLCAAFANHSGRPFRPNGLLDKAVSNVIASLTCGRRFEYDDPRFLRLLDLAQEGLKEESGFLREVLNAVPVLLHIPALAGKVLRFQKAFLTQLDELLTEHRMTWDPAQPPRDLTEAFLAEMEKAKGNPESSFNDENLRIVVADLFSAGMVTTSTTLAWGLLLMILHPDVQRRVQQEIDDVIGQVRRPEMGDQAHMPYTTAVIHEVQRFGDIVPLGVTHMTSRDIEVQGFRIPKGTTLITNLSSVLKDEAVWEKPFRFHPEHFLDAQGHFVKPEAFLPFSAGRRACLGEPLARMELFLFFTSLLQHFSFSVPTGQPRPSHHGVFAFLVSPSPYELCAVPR

As to `CCOc1ccc2ccc(=O)oc2c1` [7-EC, 7-ethoxycoumarin, reference compound], the IC50 at CYP1A2 [1] was 1.7 µM. For the same molecule, the “share of initial concentration eliminated” value in data set [2] (1 hr, test systems A and B, rats, dogs, monkeys, humans) is ≥ 99%. Also, the “share of initial concentration retained” value in data set [2] (2 hrs, test system C) was ≥ 92%.

Consider `CCCSc1ccc2nc(NC(=O)OC)[nH]c2c1` [Albendazol, albendazole, reference compound], for which the “Residual Concentration Relative to the Initial Dose After Reaction for 1 hr in Plasma” value in data set [3] and in data set [4] was >99% in each case. Turning to `CC(C)S(=O)(=O)c1ccc2nccc(Nc3ccc4scnc4c3)c2c1` [GSK872, reference compound], in the data set with CXCL8, the CXCL8 production result is “significant reduction”. Consider `CN1C(=O)C(Cc2c[nH]c3ccccc23)NC1=S` (stereo not drawn) [Necrostin-1, reference compound], for which, in the data set with CXCL8, the CXCL8 production entry is recorded as “significant reduction”. In the case of `CCOC(=O)C1=C[C@]2(CC)CCCN3CCc4c(n1c1ccccc41)[C@@H]32` [Vinpocetin, vinpocetine, reference compound], the “Residual Concentration Relative to the Initial Dose After Reaction for 1 hr in Plasma” value came to 85.3 ± 3.8% in data set [3] and 52.4 ± 7.2% in data set [4]. In the case of `COc1ccc2[nH]c([S+]([O-])Cc3ncc(C)c(OC)c3C)nc2c1` (stereo not drawn) [omeprazole, reference compound], the “Enzyme Activity CYP1A2” value in the data set on CYP1A2 [5] stood at 6.56 ± 2.86 pmol/106 Cells/Min. Besides, the half-inhibitory concentration (IC50) at CYP2C19 was determined as 6 µM. For `CC(CN1c2ccccc2Sc2ccccc21)N(C)C` (stereo not drawn) [promethazine, reference compound], at CYP2D6, the IC50 is 67.9 µM.
